Measured values taken from patent publication US20230117680A1, “CYCLOPHILIN D INHIBITORS AND USES THEREOF” (The Broad Institute, Inc., priority 2019, published 2023).
pIC50: −log10 of the molar value. “Also recorded” adds a separate entry of the source.

Columns and labels:
CypD = CypD (Homo sapiens, UniProt P30405); assay: chymotrypsin coupled PPIase assay (Suc-AAPF-AMC substrate), CypD inhibition; assay type: biochemical
Description: (§1) The selectivity of a compound described herein in inhibiting the activity of a first cyclophilin (e.g., CypD) over a second cyclophilin may be measured by the quotient of the IC50 value of the compound in inhibiting the activity of the second cyclophilin over the IC50 value of the compound in inhibiting the activity of the first cyclophilin. The selectivity of a compound described herein in modulating the activity of a first cyclophilin over a second cyclophilin may also be measured by the quotient of the Kd value of an adduct of the compound and the second cyclophilin over the Kd value of an adduct of the compound and the first cyclophilin (e.g., CypD). […] In certain embodiments, selectivity for inhibiting a first cyclophilin over other cyclophilins is measured by Surface Plasmon Resonance (SPR) assays as disclosed in the Examples.
(§2) Following the synthesis of the indicated library members, in vitro inhibition (IC50) assays of these hits were conducted to obtain IC50 inhibitory data. For the IC50 assays, a chymotrypsin coupled PPIase assay using Suc-AAPF-AMC as the peptide substrate was used, whereby isomerization of a peptide substrate Suc-AAPF-AMC from the cis to trans conformation allowed for proteolysis via excess a-chymotrypsin, releasing the C-terminal coumarin fluorophore.

[1] = system: 10 other cyclophilins with reported prolyl isomerase activity; assay: cyclophilin specificity screen: CypD against the other cyclophilins; assay type: biochemical
Description: as §1, §2
Subsequently, to determine if the compounds could both access the S2 pocket and display CypD specificity, JOMBtrans and compound 49 were screened against the 10 other cyclophilins with reported prolyl isomerase activity. […] Co-crystal structures of JOMBtrans and 49 were solved with CypD.

[2] = system: mPTP in isolated mice kidney mitochondria; assay: inhibition of mPTP in isolated mitochondria (tolerated Ca2+ pulses before full mPTP opening); conditions: result in words
Protocol: In isolated mice kidney mitochondria, the maximum number of Ca^2+ pulses that could be tolerated before full mPTP opening was measured (see FIG. 24).

NKTR = molecular target: T1, NKTR (Homo sapiens, UniProt P30414); assay: chymotrypsin coupled PPIase assay, NKTR inhibition; assay type: biochemical; conditions: result in words
T1 sequence (P30414 1-1462): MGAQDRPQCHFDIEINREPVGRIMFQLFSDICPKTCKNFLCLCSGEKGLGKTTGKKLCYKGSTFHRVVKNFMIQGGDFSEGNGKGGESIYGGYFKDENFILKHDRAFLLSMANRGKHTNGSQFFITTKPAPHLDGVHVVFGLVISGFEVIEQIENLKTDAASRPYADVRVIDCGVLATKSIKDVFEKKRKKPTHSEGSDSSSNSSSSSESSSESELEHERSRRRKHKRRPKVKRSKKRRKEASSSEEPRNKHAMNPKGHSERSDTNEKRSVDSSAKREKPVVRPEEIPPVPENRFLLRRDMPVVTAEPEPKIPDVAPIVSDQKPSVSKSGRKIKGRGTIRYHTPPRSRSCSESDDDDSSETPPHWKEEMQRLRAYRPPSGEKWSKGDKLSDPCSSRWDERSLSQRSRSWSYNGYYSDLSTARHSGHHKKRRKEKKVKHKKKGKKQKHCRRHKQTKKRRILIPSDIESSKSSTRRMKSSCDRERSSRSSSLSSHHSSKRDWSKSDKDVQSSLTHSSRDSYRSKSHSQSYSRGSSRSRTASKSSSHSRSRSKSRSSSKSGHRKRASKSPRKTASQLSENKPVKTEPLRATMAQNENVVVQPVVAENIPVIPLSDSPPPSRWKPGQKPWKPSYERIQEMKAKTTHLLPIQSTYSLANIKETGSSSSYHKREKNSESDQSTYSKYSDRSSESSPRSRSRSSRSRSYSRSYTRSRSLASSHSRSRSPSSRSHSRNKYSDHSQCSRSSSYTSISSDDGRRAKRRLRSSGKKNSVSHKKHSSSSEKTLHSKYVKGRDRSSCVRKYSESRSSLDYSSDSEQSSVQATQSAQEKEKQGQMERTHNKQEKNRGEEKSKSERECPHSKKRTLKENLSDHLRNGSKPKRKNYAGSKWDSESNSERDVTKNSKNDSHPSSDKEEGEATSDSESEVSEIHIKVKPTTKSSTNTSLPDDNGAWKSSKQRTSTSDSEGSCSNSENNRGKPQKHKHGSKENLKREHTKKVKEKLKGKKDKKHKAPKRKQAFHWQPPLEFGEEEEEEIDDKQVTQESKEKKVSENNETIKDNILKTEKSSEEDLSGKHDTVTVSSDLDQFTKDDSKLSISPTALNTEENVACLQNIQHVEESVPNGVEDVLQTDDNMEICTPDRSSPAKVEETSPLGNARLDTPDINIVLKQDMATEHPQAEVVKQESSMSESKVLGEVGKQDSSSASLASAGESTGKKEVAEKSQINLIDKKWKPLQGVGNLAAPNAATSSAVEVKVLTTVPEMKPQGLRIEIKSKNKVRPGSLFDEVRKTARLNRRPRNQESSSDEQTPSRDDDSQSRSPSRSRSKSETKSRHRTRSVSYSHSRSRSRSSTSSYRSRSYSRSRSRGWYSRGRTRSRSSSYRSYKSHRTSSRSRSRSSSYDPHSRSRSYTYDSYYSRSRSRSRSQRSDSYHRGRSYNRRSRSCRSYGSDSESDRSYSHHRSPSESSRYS
Protocol: as §2, with “fluorophore. […] Other non-inhibitor library members were also checked for binding via SPR, but produced the same profile as the prolyl isomerase assay.” for “fluorophore.”
(§3) Subsequently, to determine if the compounds could both access the S2 pocket and display CypD specificity, JOMBtrans and compound 49 were screened against the 10 other cyclophilins with reported prolyl isomerase activity. […] Co-crystal structures of JOMBtrans and 49 were solved with CypD. […] Three further H-bonds with the macrocycle's backbone and CypD were observed along with a cation-n interaction. […] The benzyl group on the piperidine ring altered the conformation of the macrocycle to open up two new hydrogen bonding interactions with CypD. […] This improvement in specificity compared to JOMBtrans signified that more CypD specific compounds can be garnered by derivatization into the S2 pocket.

CypG = molecular target: T2, CypG (Homo sapiens, UniProt Q13427); assay: chymotrypsin coupled PPIase assay, CypG inhibition; assay type: biochemical; conditions: result in words
T2 sequence (Q13427 1-754): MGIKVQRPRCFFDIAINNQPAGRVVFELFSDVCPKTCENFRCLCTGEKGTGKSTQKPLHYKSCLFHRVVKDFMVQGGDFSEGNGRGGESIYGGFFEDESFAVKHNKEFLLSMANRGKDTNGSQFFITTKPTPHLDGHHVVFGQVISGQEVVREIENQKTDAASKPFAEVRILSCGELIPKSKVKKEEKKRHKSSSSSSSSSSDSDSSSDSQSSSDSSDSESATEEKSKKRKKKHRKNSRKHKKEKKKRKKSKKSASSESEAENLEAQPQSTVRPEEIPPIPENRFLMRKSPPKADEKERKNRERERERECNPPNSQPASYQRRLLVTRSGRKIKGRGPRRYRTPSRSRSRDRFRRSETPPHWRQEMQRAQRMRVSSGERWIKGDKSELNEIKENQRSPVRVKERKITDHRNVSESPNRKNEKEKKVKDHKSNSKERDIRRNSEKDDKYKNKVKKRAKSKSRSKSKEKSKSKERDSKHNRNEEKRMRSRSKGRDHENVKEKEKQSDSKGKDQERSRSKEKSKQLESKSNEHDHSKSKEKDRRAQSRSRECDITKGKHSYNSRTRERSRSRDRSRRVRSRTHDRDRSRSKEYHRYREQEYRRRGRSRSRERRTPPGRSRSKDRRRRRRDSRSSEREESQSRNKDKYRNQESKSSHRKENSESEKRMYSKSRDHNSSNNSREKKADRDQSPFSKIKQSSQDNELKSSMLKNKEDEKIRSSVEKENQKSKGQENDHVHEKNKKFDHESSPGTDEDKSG
Protocol: as §2, with “fluorophore. […] Other non-inhibitor library members were also checked for binding via SPR, but produced the same profile as the prolyl isomerase assay.” for “fluorophore.”
as §3

PPWD1 = molecular target: T3, PPWD1 (Homo sapiens, UniProt Q96BP3); assay: chymotrypsin coupled PPIase assay, PPWD1 inhibition; assay type: biochemical; conditions: result in words
T3 sequence (Q96BP3 1-646): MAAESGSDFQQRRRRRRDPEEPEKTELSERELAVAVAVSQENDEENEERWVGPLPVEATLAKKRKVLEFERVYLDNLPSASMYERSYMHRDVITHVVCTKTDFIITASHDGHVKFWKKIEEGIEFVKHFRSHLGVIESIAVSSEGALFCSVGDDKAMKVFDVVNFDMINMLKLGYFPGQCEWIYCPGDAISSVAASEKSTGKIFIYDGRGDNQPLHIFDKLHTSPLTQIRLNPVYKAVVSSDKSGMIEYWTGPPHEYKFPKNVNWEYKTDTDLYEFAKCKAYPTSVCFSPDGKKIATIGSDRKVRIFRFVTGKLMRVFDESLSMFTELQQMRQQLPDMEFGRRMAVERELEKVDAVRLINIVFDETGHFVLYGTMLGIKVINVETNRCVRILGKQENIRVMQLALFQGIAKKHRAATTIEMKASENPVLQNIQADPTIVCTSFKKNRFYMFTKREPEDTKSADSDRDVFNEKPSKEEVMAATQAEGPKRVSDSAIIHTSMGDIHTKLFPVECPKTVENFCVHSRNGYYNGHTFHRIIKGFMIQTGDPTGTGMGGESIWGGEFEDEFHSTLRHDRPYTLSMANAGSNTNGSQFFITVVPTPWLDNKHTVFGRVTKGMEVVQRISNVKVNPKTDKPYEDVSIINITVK
Protocol: as §2, with “fluorophore. […] Other non-inhibitor library members were also checked for binding via SPR, but produced the same profile as the prolyl isomerase assay.” for “fluorophore.”
as §3

CypH = CypH (Homo sapiens, UniProt O43447); assay: chymotrypsin coupled PPIase assay, CypH inhibition; assay type: biochemical; conditions: result in words
Sequence of CypH (O43447 whole entry): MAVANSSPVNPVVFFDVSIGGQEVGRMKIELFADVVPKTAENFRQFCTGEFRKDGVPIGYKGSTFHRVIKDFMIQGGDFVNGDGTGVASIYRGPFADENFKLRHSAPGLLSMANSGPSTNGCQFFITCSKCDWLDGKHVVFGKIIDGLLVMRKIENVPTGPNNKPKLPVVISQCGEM
Protocol: as §2, with “fluorophore. […] Other non-inhibitor library members were also checked for binding via SPR, but produced the same profile as the prolyl isomerase assay.” for “fluorophore.”
as §3

Sequence of CypD (P30405 30-207): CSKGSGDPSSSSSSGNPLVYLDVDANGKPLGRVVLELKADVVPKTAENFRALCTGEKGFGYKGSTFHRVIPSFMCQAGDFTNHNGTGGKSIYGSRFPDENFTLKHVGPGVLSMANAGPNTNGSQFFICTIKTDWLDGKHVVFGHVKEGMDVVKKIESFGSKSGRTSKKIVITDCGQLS

**Q.** With NCCOCCNC(=O)[C@@H]1CCNC(=O)/C=C/C(=O)N2CCC[C@](Cc3ccccc3)(C2)C(=O)N[C@@H](Cc2ccco2)C(=O)NCc2ccccc2CC(=O)N1 [compound 49] as the compound, how does the “increase in potency compared to JOMBtrans” value (CypD) read?
**A.** 75 fold

**Q.** What about the pIC50 (CypD; read-out: potency for CypD) of the same compound?
**A.** 6.70

**Q.** And the “potency for CypD (in words)” value (CypD; result in words)?
**A.** low potency

**Q.** What about the “specificity for CypD compared to any other cyclophilins” value [1] of the same compound?
**A.** approximately 10 fold

**Q.** And the “decrease in inhibition against other family members compared to CypD” value ([1]; result in words)?
**A.** at most a ten-fold decrease

**Q.** What about the “specificity / selectivity profile for CypD (in words)” value (“specificity / selectivity profile” below) ([1]; result in words) of the same compound?
**A.** low specificity; also recorded: very promiscuous cyclophilin inhibition

**Q.** For NC(=O)[C@@H]1CCNC(=O)/C=C/C(=O)N2CCC[C@](Cc3ccccc3)(C2)C(=O)N[C@@H](Cc2ccc(-c3ccc(CCC(=O)O)cc3)cc2)C(=O)NCc2ccccc2CC(=O)N1 [A-81b], which “number of tolerated Ca2+ pulses before full mPTP opening” value [2] is on record?
**A.** extended pulse number; also recorded: almost as potent as CsA

**Q.** Which “specificity / selectivity profile” value ([1]; result in words) does the source give for Cc1cc(C(=O)O)ccc1-c1ccc(C[C@@H]2NC(=O)[C@]3(Cc4ccccc4)CCCN(C3)C(=O)/C=C/C(=O)NCC[C@@H](C(=O)NCCOCCN)NC(=O)Cc3ccccc3CNC2=O)cc1 [A-57] here?
**A.** best specificity profiles; also recorded: preference for CypD

**Q.** For NCCOCCNC(=O)[C@@H]1CCNC(=O)/C=C/C(=O)N2CCC[C@](Cc3ccccc3)(C2)C(=O)N[C@@H](Cc2ccc(-c3ccc(/C=C/C(=O)O)cc3)cc2)C(=O)NCc2ccccc2CC(=O)N1 [A-82], which “specificity / selectivity profile” value ([1]; result in words) is on record?
**A.** preference for CypD

**Q.** For NCCOCCNC(=O)[C@@H]1CCNC(=O)/C=C/C(=O)N2CCC[C@](Cc3ccccc3)(C2)C(=O)N[C@@H](Cc2ccc(-c3ccc(CC(=O)O)cc3)cc2)C(=O)NCc2ccccc2CC(=O)N1 [A-63], which “specificity / selectivity profile” value ([1]; result in words) is on record?
**A.** preference for CypD

**Q.** For CC(=O)c1ccc(-c2ccc(C[C@@H]3NC(=O)[C@]4(Cc5ccccc5)CCCN(C4)C(=O)/C=C/C(=O)NCC[C@@H](C(N)=O)NC(=O)Cc4ccccc4CNC3=O)cc2)cc1 [A-22b], which “number of tolerated Ca2+ pulses before full mPTP opening” value [2] is on record?
**A.** extended pulse number

**Q.** With NCCOCCNC(=O)[C@@H]1CCNC(=O)/C=C/C(=O)N2CCC[C@](Cc3ccccc3)(C2)C(=O)N[C@@H](Cc2ccc(-c3ccc(C(=O)O)cc3)cc2)C(=O)NCc2ccccc2CC(=O)N1 [A-54] as the compound, how does the “specificity / selectivity profile” value ([1]; result in words) read?
**A.** best specificity profiles; also recorded: preference for CypD

**Q.** For NCCOCCNC(=O)[C@@H]1CCNC(=O)/C=C/C(=O)N2CCC[C@](Cc3ccccc3)(C2)C(=O)N[C@@H](Cc2ccc(C(=O)c3ccccc3)cc2)C(=O)NCc2ccccc2CC(=O)N1 [A-1], which “inhibition of NKTR” value (NKTR) is on record?
**A.** abolished inhibition

**Q.** And the “inhibition of CypG” value (CypG)?
**A.** abolished inhibition

**Q.** What about the “inhibition of PPWD1” value (PPWD1) of the same compound?
**A.** abolished inhibition

**Q.** And the “inhibition of CypH” value (CypH)?
**A.** abolished inhibition

**Q.** Which results are given for CC(C)(C)c1ccc(C[C@@H]2NC(=O)[C@]3(Cc4ccccc4)CCCN(C3)C(=O)/C=C/C(=O)NCC[C@@H](C(=O)NCCOCCN)NC(=O)Cc3ccccc3CNC2=O)cc1 [A-9]?
**A.** inhibition of NKTR (NKTR): abolished inhibition; inhibition of CypG (CypG): abolished inhibition; inhibition of PPWD1 (PPWD1): abolished inhibition; inhibition of CypH (CypH): abolished inhibition
